Measurements as given in the supplement of paper PMC8741786.
≈ marks a conversion by molar mass, not a printed value.

Key:
Assay in all cases: minimum inhibitory concentration (ETEST)
Neisseria cinerea = conditions: population: general population, antibiotic use in previous 6 months: No
Procedure: (§1)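 Oropharyngeal Neisseria isolates from MSM and employees in Belgium were identified to species by MALDI-TOF MS. MICs of azithromycin, ceftriaxone and ciprofloxacin were determined by ETEST on GC agar after 24 h at 36.5 °C and 5-7% CO2, in mg/L. Values beyond the strip range are reported as >256 (azithromycin) or <0.016 (ceftriaxone); isolates that did not grow are NA.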

Neisseria elongata = conditions: population: general population, antibiotic use in previous 6 months: No
Procedure: as §1

Neisseria gonorrhoeae = conditions: isolate id (sample isolate): 19113052_3; population: MSM; antibiotic use in previous 6 months: No
Procedure: as §1

Neisseria oralis = conditions: population: general population, antibiotic use in previous 6 months: No
Procedure: as §1

[1] = system: Neisseria subflava/flavescens/perflava
Procedure: as §1

CC[C@H]1OC(=O)[C@H](C)[C@@H](O[C@H]2C[C@@](C)(OC)[C@@H](O)[C@H](C)O2)[C@H](C)[C@@H](O[C@@H]2O[C@H](C)C[C@H](N(C)C)[C@H]2O)[C@](C)(O)C[C@@H](C)CN(C)[C@H](C)[C@@H](O)[C@]1(C)O [azithromycin]
Conditions	minimum inhibitory concentration [µg/mL]
Neisseria cinerea, isolate id (sample isolate): Co000769_3	1 (≈ 1.34 µM)
Neisseria cinerea, isolate id (sample isolate): Co000776_4	24 (≈ 32 µM)
Neisseria cinerea, isolate id (sample isolate): Co000776_5	32 (≈ 42.7 µM)
Neisseria cinerea, isolate id (sample isolate): Co000782_1	2 (≈ 2.67 µM)
Neisseria elongata, isolate id (sample isolate): Co000767_3	0.5 (≈ 0.668 µM)
Neisseria elongata, isolate id (sample isolate): Co000780_1	0.75 (≈ 1 µM)
Neisseria elongata, isolate id (sample isolate): Co000783_4	0.38 (≈ 0.507 µM)
Neisseria oralis, isolate id (sample isolate): Co000761_7	2 (≈ 2.67 µM)
Neisseria oralis, isolate id (sample isolate): Co000763_1	1 (≈ 1.34 µM)
Neisseria oralis, isolate id (sample isolate): Co000766_2	1.5 (≈ 2 µM)
Neisseria oralis, isolate id (sample isolate): Co000770_1	2 (≈ 2.67 µM)
Neisseria oralis, isolate id (sample isolate): Co000774_1	3 (≈ 4.01 µM)
Neisseria oralis, isolate id (sample isolate): Co000776_1	4 (≈ 5.34 µM)
Neisseria oralis, isolate id (sample isolate): Co000776_1.1	3 (≈ 4.01 µM)
Neisseria oralis, isolate id (sample isolate): Co000779_2	4 (≈ 5.34 µM)
Neisseria oralis, isolate id (sample isolate): Co000790_5	2 (≈ 2.67 µM)

Conditions	minimum inhibitory concentration [µg/mL]
Neisseria gonorrhoeae	0.125 (≈ 0.167 µM)

[1]
Conditions	minimum inhibitory concentration [µg/mL]
isolate id (sample isolate): 19041762_1, population: MSM, antibiotic use in previous 6 months: Yes	> 256
isolate id (sample isolate): 19041762_1.1, population: MSM, antibiotic use in previous 6 months: Yes	> 256
isolate id (sample isolate): 19041780_1, population: MSM, antibiotic use in previous 6 months: Yes	> 256
isolate id (sample isolate): 19042150_1, population: MSM, antibiotic use in previous 6 months: Yes	64 (≈ 85.4 µM)
isolate id (sample isolate): 19042150_3, population: MSM, antibiotic use in previous 6 months: Yes	> 256
isolate id (sample isolate): 19042756_1, population: MSM, antibiotic use in previous 6 months: Yes	> 256
isolate id (sample isolate): 19042756_2, population: MSM, antibiotic use in previous 6 months: Yes	> 256
isolate id (sample isolate): 19043201_1.1, population: MSM, antibiotic use in previous 6 months: No	96 (≈ 128 µM)
isolate id (sample isolate): 19043201_2.1, population: MSM, antibiotic use in previous 6 months: No	> 256
isolate id (sample isolate): 19043201_3, population: MSM, antibiotic use in previous 6 months: No	96 (≈ 128 µM)
isolate id (sample isolate): 19043274_3, population: MSM, antibiotic use in previous 6 months: Yes	128 (≈ 171 µM)
isolate id (sample isolate): 19050474_1, population: MSM, antibiotic use in previous 6 months: No	8 (≈ 10.7 µM)
isolate id (sample isolate): 19050514_1, population: MSM, antibiotic use in previous 6 months: Yes	> 256
isolate id (sample isolate): 19050949_1, population: MSM, antibiotic use in previous 6 months: No	3 (≈ 4.01 µM)
isolate id (sample isolate): 19050949_2, population: MSM, antibiotic use in previous 6 months: No	4 (≈ 5.34 µM)
isolate id (sample isolate): 19050949_2.1, population: MSM, antibiotic use in previous 6 months: No	4 (≈ 5.34 µM)
isolate id (sample isolate): 19051904_2, population: MSM, antibiotic use in previous 6 months: Yes	2 (≈ 2.67 µM)
isolate id (sample isolate): 19051904_3, population: MSM, antibiotic use in previous 6 months: Yes	1.5 (≈ 2 µM)
isolate id (sample isolate): 19052394_1, population: MSM, antibiotic use in previous 6 months: Yes	2 (≈ 2.67 µM)
isolate id (sample isolate): 19052394_1.1, population: MSM, antibiotic use in previous 6 months: Yes	1.5 (≈ 2 µM)
isolate id (sample isolate): 19060089_1, population: MSM, antibiotic use in previous 6 months: Yes	8 (≈ 10.7 µM)
isolate id (sample isolate): 19062994_1, population: MSM, antibiotic use in previous 6 months: Yes	2 (≈ 2.67 µM)
isolate id (sample isolate): Co000761_2, population: general population, antibiotic use in previous 6 months: No	2 (≈ 2.67 µM)
isolate id (sample isolate): Co000761_3, population: general population, antibiotic use in previous 6 months: No	4 (≈ 5.34 µM)
isolate id (sample isolate): Co000761_5, population: general population, antibiotic use in previous 6 months: No	6 (≈ 8.01 µM)
isolate id (sample isolate): Co000761_6, population: general population, antibiotic use in previous 6 months: No	3 (≈ 4.01 µM)
isolate id (sample isolate): Co000762_3, population: general population, antibiotic use in previous 6 months: No	6 (≈ 8.01 µM)
isolate id (sample isolate): Co000762_4, population: general population, antibiotic use in previous 6 months: No	4 (≈ 5.34 µM)
isolate id (sample isolate): Co000763_2, population: general population, antibiotic use in previous 6 months: No	2 (≈ 2.67 µM)
isolate id (sample isolate): Co000764_1, population: general population, antibiotic use in previous 6 months: No	8 (≈ 10.7 µM)
isolate id (sample isolate): Co000764_2, population: general population, antibiotic use in previous 6 months: No	8 (≈ 10.7 µM)
isolate id (sample isolate): Co000765_2, population: general population, antibiotic use in previous 6 months: No	3 (≈ 4.01 µM)
isolate id (sample isolate): Co000765_3, population: general population, antibiotic use in previous 6 months: No	3 (≈ 4.01 µM)
isolate id (sample isolate): Co000765_4, population: general population, antibiotic use in previous 6 months: No	3 (≈ 4.01 µM)
isolate id (sample isolate): Co000766_1, population: general population, antibiotic use in previous 6 months: No	6 (≈ 8.01 µM)
isolate id (sample isolate): Co000766_3, population: general population, antibiotic use in previous 6 months: No	1 (≈ 1.34 µM)
isolate id (sample isolate): Co000767_1, population: general population, antibiotic use in previous 6 months: No	1 (≈ 1.34 µM)
isolate id (sample isolate): Co000767_2, population: general population, antibiotic use in previous 6 months: No	6 (≈ 8.01 µM)
isolate id (sample isolate): Co000767_4, population: general population, antibiotic use in previous 6 months: No	1.5 (≈ 2 µM)
isolate id (sample isolate): Co000767_5, population: general population, antibiotic use in previous 6 months: No	1.5 (≈ 2 µM)
isolate id (sample isolate): Co000767_6, population: general population, antibiotic use in previous 6 months: No	0.75 (≈ 1 µM)
